Test results from patent publication US11160790B2, “Method of inhibiting Cryptococcus growth using eltrombopag” (priority 2019, dated 2021).
In brackets after ≈: the same amount, converted by molar mass.

Columns and labels:
[1] = system: Aspergillus fumigatus AF293; assay: Microdilution assay (CLSI M27-A3/M38-A2), MIC and MFC; assay type: cell-based
Experimental: (§1) Cryptococcus and Candida species were cultured in yeast extract-peptone-dextrose (YPD) medium (containing 1% yeast extract, 2% peptone, 2% glucose, and optionally 2% agar for preparation of an agar plate). Aspergillus, Fusarium, and Trichophyton species were cultured on potato dextrose agar (PDA) plate (containing 2% potato infusion, […], and 1.5% agar). A microdilution assay was performed to determine minimum inhibitory concentration (MIC), minimum fungicidal concentration (MFC), and fractional inhibitory concentration (FIC) index (FICI) using RPMI 1640 medium buffered with MOPS. Minimal medium (containing 15 mM glucose, 10 mM magnesium sulfate, 29.4 mM potassium dihydrogen phosphate, 13 mM glycine, and 3 μM thiamine hydrochloride; pH 5.5) was used for capsule size assay and melanization assay.
(§2) To investigate the inhibitory effects of eltrombopag on the growth of fungi, microdilution assays (based on the CLSI standards M27-A3 and M38-A2) were performed with multiple pathogenic yeasts and filamentous fungi including Cryptococcus, Candida, Aspergillus, Fusarium, and Trichophyton (TABLE 1). Briefly, yeast or filamentous fungi strains at a final concentration of about 10^3 cfu/mL were inoculated in RPMI 1640 medium containing two-fold serially diluted eltrombopag (started at 64 mg/L). In addition, fungal cultures without eltrombopag were used as positive controls, while media without fungal cells and eltrombopag were used as negative controls. The 96-well plates loaded with the aforementioned cultures were incubated at 35° C. for 48 hours, and the growth of cells in each well was examined to determine the minimum inhibitory concentration (MIC) of eltrombopag, which was the lowest drug concentration at which there was no visible cell growth. Thereafter, 3 μL of the fungal culture from each well of the 96-well plates was spotted onto eltrombopag-free YPD (for yeasts) or PDA (for filamentous fungi) agar plates, which were then incubated at 35° C. for 48 hours to examine colony formation Minimum fungicidal concentration (MFC) was determined to be the lowest drug concentration at which no colonies formed. The assays were performed in triplicate.

Candida albicans SC5314 = assay: as above; assay type: cell-based; details: 35° C.
Experimental: as §1, §2

Candida glabrata CBS138 = assay: as above; assay type: cell-based; details: Nakaseomyces glabratus, 35° C.
Experimental: as §1, §2

[2] = system: Candida lusitaniae ATCC42720; assay: as above; assay type: cell-based; details: Clavispora lusitaniae, 35° C.
Experimental: as §1, §2

[3] = system: Cryptococcus gattii WM276; assay: as above; assay type: cell-based; details: 35° C.
Experimental: as §1, §2

[4] = system: Cryptococcus neoformans 89-610; assay: as above; assay type: cell-based; details: 35° C.
Experimental: as §1, §2

C. neoformans H99 [5] = assay: Growth kinetics in RPMI 1640 (cell density); assay type: cell-based, Cryptococcus neoformans
Experimental: To study the inhibitory effects of eltrombopag on the growth of Cryptococcus, C. neoformans H99 cells were cultured overnight at 30° C. and then washed twice with double-distilled water. The cells were diluted to 0.0005 OD600/mL with RPMI 1640 medium, and 5 mL of the cell suspension was treated with eltrombopag at 0.5, 0.25, 0.125, 0.06, or 0 mg/L and incubated at 37° C. with shaking at 150 rpm for 4 days. The cell density of the suspensions was measured every 12 hours with a SpectraMax190 microplate reader (Molecular Devices), and growth curves were plotted using Prism 5.03 (GraphPad Software, San Diego, Calif., USA). The experiments were performed in triplicate, and the results were presented as mean±standard deviation.

C. neoformans H99 [6] = assay: Checkerboard titration assay; assay type: cell-based, Cryptococcus neoformans; details: 30° C., 48 hours
Experimental: (§3) Amphotericin B plus 5-flucytosine or fluconazole are combinations often used to treat cryptococcal meningitis. To investigate the synergy between eltrombopag and existing antifungal drugs or other drugs, a checkerboard titration assay was performed on Cryptococcus. Briefly, C. neoformans […] and C. deuterogattii […] cells were cultured overnight at 30° C. and then washed twice with double-distilled water. The cells were diluted to 10^3 cfu/mL with RPMI 1640 medium, and 100 μL of the cell suspension was added to each well of a 96-well polystyrene plate. […] After incubation at 30° C. for 48 hours, the growth of cells under different treatments was assessed by measuring the light absorbance at 600 nm (OD600). This assay allows the determination of fractional inhibitory concentration index (FICI): (MICcombined of drug A/MICalone of drug A)+(MICcombined of drug B/MICalone of drug B). After the checkerboard titration assay, the cells (3 μL) in the 96-well plate were transferred to drug-free YPD agar plates. After incubation at 30° C. for 48 hours, the agar plates were photographed and assessed for cell viability.

C. deuterogattii R265 [7] = assay: Checkerboard titration assay; assay type: cell-based, Cryptococcus deuterogattii; details: 30° C., 48 hours
Experimental: as §3

C. neoformans H99 [8] = assay: Capsule size assay (India ink); assay type: cell-based, Cryptococcus neoformans; details: 0.06 mg/L, 37° C., 48 hours, versus no eltrombopag treatment
Experimental: as §1
(§4) Cryptococcus capsule, the structure attached to the outer surface of the cell wall and mainly composed of polysaccharides, can increase the resistance of Cryptococcus to host immune response (such as phagocytosis by macrophages) and harsh conditions (such as extreme acidity or alkalinity, high CO2 levels, or iron deprivation). To test whether eltrombopag affects capsule formation in Cryptococcus, C. neoformans H99 and C. deuterogattii R265 cells were cultured overnight in YPD media at 30° C. […] Statistical significance for the data sets was determined using a two-tailed t test.

C. deuterogattii R265 [9] = assay: Capsule size assay (India ink); assay type: cell-based, Cryptococcus deuterogattii; details: 0.06 mg/L, 37° C., 48 hours, versus no eltrombopag treatment
Experimental: as §1, §4

CC1=NN(c2ccc(C)c(C)c2)C(=O)/C1=N\Nc1cccc(-c2cccc(C(=O)O)c2)c1O [eltrombopag]
antifungal activity [1]: no antifungal activity
MIC ([1]; Aspergillus fumigatus, AF293, 35° C., 48 hours): > 64 µg/mL
MFC ([1]; Aspergillus fumigatus, AF293, 35° C., 48 hours on drug-free agar): > 64 µg/mL
MIC (Candida albicans SC5314; 48 hours): > 64 µg/mL
MFC (Candida albicans SC5314; 48 hours on drug-free agar): > 64 µg/mL
MIC (Candida glabrata CBS138; CBS138, 48 h, 48 hours): ~0.25 µg/mL (≈ 0.565 µM)
MFC (Candida glabrata CBS138; CBS138, 48 hours on drug-free agar): > 64 µg/mL
MIC ([2]; 48 hours): 64 µg/mL (≈ 145 µM)
MFC ([2]; 48 hours on drug-free agar): > 64 µg/mL
MIC ([3]; 48 hours): 0.125 µg/mL (≈ 0.283 µM)
MFC ([3]; 48 hours on drug-free agar): > 64 µg/mL
MIC ([4]; Cryptococcus neoformans, 89610, 48 h, 48 hours, azole-resistant strain): 0.125 µg/mL (≈ 0.283 µM)
MFC ([4]; Cryptococcus neoformans, 89610, 48 hours on drug-free agar): > 64 µg/mL
growth kinetics (cell density) (C. neoformans H99 [5]; 0.06 mg/L): did not affect the growth kinetics
growth kinetics (cell density) (C. neoformans H99 [5]; 0.25 mg/L or 0.5 mg/L, 37° C., 96 hours): static growth of C. neoformans was maintained
growth kinetics (cell density) (C. neoformans H99 [5]; 0.5, 0.25, 0.125, 0.06 mg/L, 37° C., 4 days): inhibited the growth of C. neoformans in a dose-dependent manner
MICalone (C. neoformans H99 [6]): 0.25 mg/L
MICcombined of ETP (C. neoformans H99 [6]; ETP in combination with AMB): 0.03 mg/L
MICcombined of ETP (C. neoformans H99 [6]; ETP in combination with CsA): 0.25 mg/L
MICcombined of ETP (C. neoformans H99 [6]; ETP in combination with FK506): 0.015 mg/L
MICcombined of ETP (C. neoformans H99 [6]; ETP in combination with FLC): 0.03 mg/L
MICalone (C. deuterogattii R265 [7]): 0.5 mg/L
MICcombined of ETP (C. deuterogattii R265 [7]; ETP in combination with AMB): 0.03 mg/L
MICcombined of ETP (C. deuterogattii R265 [7]; ETP in combination with CsA): 1 mg/L
MICcombined of ETP (C. deuterogattii R265 [7]; ETP in combination with FK506): 0.015 mg/L
MICcombined of ETP (C. deuterogattii R265 [7]; ETP in combination with FLC): 0.03 mg/L
capsule size (C. neoformans H99 [8]): capsule size significantly reduced
capsule size (C. deuterogattii R265 [9]): capsule size significantly reduced
